In publication PMC12101129, “An optimized CYP3A4-activatable fluorogenic sensor for in situ functional imaging and multi-dimensional inhibitor assessment” (Chemical Science, 2025):

Legend:
CYP3A = CYP3A inhibition assay in mouse liver microsomes; assay type: biochemical; settings: MLMs
CYP3A4 = experiment: Liver organ imaging in the presence of CYP3A4 inhibitor; set-up: species or system mice; settings: male, C57BL/6J, mouse, isolated liver tissue, probe NCN (50 µM); read-out: residual activity of hepatic CYP3A4
Procedure: dose group (CCl4-L, 0.15%), and CCl4 high dose group (CCl4-H, 0.3%). CCl4 was dissolved in vegetable oil and administered via intraperitoneal injection. After that, mice were fasted and allowed to drink water freely. After 18 h, blood samples were collected to determine the level of ALT and AST, while liver tissues were collected and washed with PBS. Then, the liver tissues were soaked 30 min in a solution containing NCN (50 μM, 5 mL) for fluorescent imaging. After organ imaging, the tissues were ground, and centrifuged, and the supernatant was diluted with 10-fold acetonitrile to precipitate the protein. After centrifugation again, the supernatant was determined to quantify the level of HNCN.
1.15. Bio-safety assessment of NCN in healthy mice
Sixteen C57BL/6J mice (8 males and 8 females, 6 weeks) were randomly assigned into two groups (4 males and 4 females). All mice were subjected to adaptive feeding for 7 d before the experiment. […] Mice organs were weighed and the organ index was calculated, and hematoxylin and eosin (H&E) stains were provided by Shanghai Ruibaohe Biotechnology Co., Ltd. […]
After that, the liver tissues were removed, and fluorescence imaging of the liver was performed using VISQUE Invivo Smart-LF. […]
quantify the levels of HNCN. […]
fluorescence intensity of the control (solvent only)) × 100%. […]

Q: What does the source list for `CC(=O)N1CCN(c2ccc(OCC3COC(Cn4ccnc4)(c4ccc(Cl)cc4Cl)O3)cc2)CC1` (centres unmarked) [KCZ, ketoconazole]?
A: IC50 (CYP3A): […]; activity at 1 h, 1 µM (CYP3A4): ~20%
